Each structure is given as a SMILES string. Where two headings read alike, the source gives them in different places. Marks after values point to notes of the source that are not given here.

This is an account of results in US20110053770A1, “SUBSTITUTED AMINOTHIAZOLES AND THEIR USE AS FUNGICIDES” (BAYER CROPSCIENCE AG, priority 2009, published 2011).

This data set is described as follows: logP by HPLC on reversed-phase columns (C 18), EEC directive 79/831 Annex V.A8. In kind it is physicochemical. The note with it: for log P (**): pH 2.7, 0.1% aqueous formic acid and acetonitrile; for chromatographic logP: reversed-phase HPLC column (C 18). As for the experimental part:
Calibration was carried out using unbranched alkan-2-ones (having from 3 to 16 carbon atoms) with known logP values (the logP values were determined by the retention times using linear interpolation between two successive alkanones).

The mark [1] stands for this setting: LC-MS, neutral range, pH 7.8, 0.001 molar aqueous ammonium bicarbonate and acetonitrile.
The mark [2] stands for this setting: acidic range, pH 2.3, 0.1% aqueous phosphoric acid and acetonitrile.

For `CC(=O)N1CCCCC1=Nc1nc(-c2ccc3c(c2)OCO3)cs1` [compound 39, 1-[(2E/Z)-2-{[4-(1,3-benzodioxol-5-yl)-1,3-thiazol-2-yl]imino}piperidin-1-yl]ethanone], under “LC-MS, acidic range”, the “log P (**)” value was 2.96. Moreover, under setting [1], the “log P (***)” value was determined as 2.95. In addition, the “log P (*)” value under setting [2] is listed as 2.96.
For the molecule `CC(C)(C)c1ccc(-c2csc(N=C3CCCCN3)n2)cc1` [compound 32, 4-(4-tert-butylphenyl)-N-[(2E/Z)-piperidin-2-ylidene]-1,3-thiazole-2-amine], the “log P (**)” value (LC-MS, acidic range) came out at 2.2. Also, the “log P (***)” value under setting [1] stood at 4.35. Moreover, the “log P (*)” value under setting [2] was 2.2.
For the molecule `C=CCOc1ccccc1-c1csc(N=C2CCCCN2)n1` [compound 22, N-[(2E/Z)-piperidin-2-ylidene]-4-[2-(prop-2-en-1-yloxy)phenyl]-1,3-thiazole-2-amine], the “log P (**)” value (LC-MS, acidic range) worked out at 1.83. Also, the “log P (***)” value under setting [1] turned out to be 3.45. Also, the “log P (*)” value under setting [2] amounted to 1.83.
Consider `CC(=O)N1CCCCC1=Nc1nc(-c2cc(F)cc(F)c2)cs1` [compound 40, 1-[(2E/Z)-2-{[4-(3,5-difluoro-phenyl)-1,3-thiazol-2-yl]imino}piperidin-1-yl]ethanone], for which the “log P (**)” value (LC-MS, acidic range) is recorded as 3.63. Moreover, the “log P (***)” value under setting [1] was 3.62. The “log P (*)” value under setting [2] was determined as 3.63.
Turning to `Fc1ccc(Oc2ccccc2-c2csc(N=C3CCCCN3)n2)c(F)c1` [compound 7, 4-[2-(2,4-difluorophenoxy)phenyl]-N-[(2E/Z)-piperidin-2-ylidene]-1,3-thiazole-2-amine], the “log P (**)” value (LC-MS, acidic range) was found to be 2.11. Moreover, the “log P (***)” value under setting [1] was found to be 3.9. Moreover, the “log P (*)” value under setting [2] was 2.11.
Turning to `Cc1cccc(-c2csc(N=C3CCCCN3)n2)c1` [compound 60, 4-(3-methylphenyl)-N-[(2E/Z)-piperidin-2-ylidene]-1,3-thiazole-2-amine], under setting [2], the “log P (*)” value is listed as 1.32*.
As to `FC(F)(F)c1cc(Oc2ccccc2-c2csc(N=C3CCCCN3)n2)ccc1Cl` [compound 14, 4-{2-[4-chloro-3-(trifluoromethyl)phenoxy]phenyl}-N-[(2E/Z)-piperidin-2-ylidene]-1,3-thiazole-2-amine], for the setting “LC-MS, acidic range”, the “log P (**)” value is 2.58. In addition, the “log P (***)” value under setting [1] is 4.9. Also, the “log P (*)” value under setting [2] is 2.58.
`COc1ccc(-c2csc(N=C3CCCCN3)n2)cc1` [compound 56, 4-(4-methoxyphenyl)-N-[(2E/Z)-piperidin-2-ylidene]-1,3-thiazole-2-amine]: the “log P (*)” value under setting [2] is given as 1.18*.
Consider `Brc1cccc(Oc2ccccc2-c2csc(N=C3CCCCN3)n2)c1` [compound 87, 4-[2-(3-bromophenoxy)phenyl]-N-[(2E/Z)-piperidin-2-ylidene]-1,3-thiazole-2-amine], for which the “log P (***)” value under setting [1] was 4.71. Besides, the “log P (*)” value under setting [2] came out at 2.19.
On to `Clc1cccc(Oc2ccccc2-c2csc(N=C3CCCCN3)n2)c1` [compound 85, 4-[2-(3-chlorophenoxy)phenyl]-N-[(2E/Z)-piperidin-2-ylidene]-1,3-thiazole-2-amine], for which the “log P (*)” value under setting [2] is on record as 2.16*.
With `Fc1ccc(Cc2ccccc2-c2csc(N=C3CCCCN3)n2)cc1` [compound 90, 4-[2-(4-fluorobenzyl)phenyl]-N-[(2E/Z)-piperidin-2-ylidene]-1,3-thiazole-2-amine], under “LC-MS, acidic range”, the “log P (**)” value is on record as 1.95. Besides, under setting [1], the “log P (***)” value is 4.19.
On to `Clc1ccc(-c2csc(N=C3CCCCN3)n2)c(Cl)c1` [compound 104, 4-(2,4-dichlorophenyl)-N-[(2E/Z)-piperidin-2-ylidene]-1,3-thiazole-2-amine], for which the “log P (**)” value (LC-MS, acidic range) amounted to 1.76. In addition, the “log P (***)” value under setting [1] stood at 3.92. The “log P (*)” value under setting [2] was 1.76.
As to `CCOc1ccccc1-c1csc(N=C2CCCCN2)n1` [compound 23, 4-(2-ethoxyphenyl)-N-[(2E/Z)-piperidin-2-ylidene]-1,3-thiazole-2-amine], the “log P (**)” value (LC-MS, acidic range) worked out at 1.77. For the same molecule, the “log P (***)” value under setting [1] amounted to 3.35. Also, the “log P (*)” value under setting [2] was found to be 1.77.
As to `CC(=O)N1CCCCC1=Nc1nc(-c2ccc(Cl)cc2)c(C)s1` [compound 42, 1-[(2E/Z)-2-{[4-(4-chlorophenyl)-5-methyl-1,3-thiazol-2-yl]imino}piperidin-1-yl]ethanone], the “log P (**)” value (LC-MS, acidic range) is 3.92. In addition, the “log P (***)” value under setting [1] is listed as 3.96. Also, under setting [2], the “log P (*)” value came out at 3.92.
For `CCOc1ccccc1-c1csc(N=C2CCCCN2C(C)=O)n1` [compound 33, 1-[(2E/Z)-2-{[4-(2-ethoxyphenyl)-1,3-thiazol-2-yl]imino}piperidin-1-yl]ethanone], the “log P (**)” value (LC-MS, acidic range) is listed as 2.71. Moreover, the “log P (***)” value under setting [1] is on record as 5.03. For the same molecule, the “log P (*)” value under setting [2] is on record as 2.71.
Consider `c1cc2c(cc1-c1csc(N=C3CCCCN3)n1)OCO2` [compound 28, 4-(1,3-benzodioxol-5-yl)-N-[(2E/Z)-piperidin-2-ylidene]-1,3-thiazole-2-amine], for which the “log P (**)” value (LC-MS, acidic range) is 1.41. The “log P (***)” value under setting [1] was 2.65. Also, the “log P (*)” value under setting [2] is 1.41.
For `Fc1cccc(-c2csc(N=C3CCCCN3)n2)c1F` [compound 25, 4-(2,3-difluorophenyl)-N-[(2E/Z)-piperidin-2-ylidene]-1,3-thiazole-2-amine], the “log P (**)” value (LC-MS, acidic range) was 1.58. For the same molecule, the “log P (***)” value under setting [1] was 3.21. In addition, the “log P (*)” value under setting [2] worked out at 1.58.
Take `Fc1ccc(Oc2ccc(-c3csc(N=C4CCCN4)n3)cc2)c(F)c1` [compound 97, 4-[4-(2,4-difluorophenoxy)phenyl]-N-[(2E/Z)-pyrrolidin-2-ylidene]-1,3-thiazole-2-amine]: under setting [1], the “log P (***)” value came to 3.59. For the same molecule, the “log P (*)” value under setting [2] is on record as 2.03.
For `Brc1ccccc1-c1csc(N=C2CCCCN2)n1` [compound 48, 4-(2-bromophenyl)-N-[(2E/Z)-piperidin-2-ylidene]-1,3-thiazole-2-amine], the “log P (**)” value (LC-MS, acidic range) is listed as 1.58. Further, the “log P (***)” value under setting [1] amounted to 3.25.
`Fc1ccc(Oc2ccccc2-c2csc(N=C3CCCN3)n2)c(F)c1` [compound 102, 4-[2-(2,4-difluorophenoxy)phenyl]-N-[(2E/Z)-pyrrolidin-2-ylidene]-1,3-thiazole-2-amine]: the “log P (***)” value under setting [1] came out at 3.55. The “log P (*)” value under setting [2] came out at 1.98.
Consider `Clc1ccc(-c2ccccc2-c2csc(N=C3CCCCN3)n2)cc1Cl` [compound 66, 4-(3′,4′-dichloro-biphenyl-2-yl)-N-[(2E/Z)-piperidin-2-ylidene]-1,3-thiazole-2-amine], for which, for the setting “LC-MS, acidic range”, the “log P (**)” value was 2.2**.
For the molecule `Clc1ccc(-c2csc(N=C3CCCCN3)n2)cc1Cl` [compound 52, 4-(3,4-dichlorophenyl)-N-[(2E/Z)-piperidin-2-ylidene]-1,3-thiazole-2-amine], the chromatographic logP runs as follows: (LC-MS, neutral range, pH 7.8, 0.001 molar aqueous ammonium bicarbonate and acetonitrile, read-out: log P (***)) 3.93; (acidic range, pH 2.3, 0.1% aqueous phosphoric acid and acetonitrile, read-out: log P (*)) 1.68.
`Fc1ccc(-c2csc(N=C3CCCCN3)n2)cc1F` [compound 18, 4-(3,4-difluorophenyl)-N-[(2E/Z)-piperidin-2-ylidene]-1,3-thiazole-2-amine]: the “log P (**)” value (LC-MS, acidic range) turned out to be 1.64. Also, under setting [1], the “log P (***)” value came out at 3.12. Besides, the “log P (*)” value under setting [2] is given as 1.64.
Regarding `Brc1ccc(Oc2ccccc2-c2csc(N=C3CCCCN3)n2)cc1` [compound 84, 4-[2-(4-bromophenoxy)phenyl]-N-[(2E/Z)-piperidin-2-ylidene]-1,3-thiazole-2-amine], under setting [2], the “log P (*)” value is listed as 2.14*.
Regarding `Fc1cccc(Oc2ccccc2-c2csc(N=C3CCCCN3)n2)c1` [compound 83, 4-[2-(3-fluorophenoxy)phenyl]-N-[(2E/Z)-piperidin-2-ylidene]-1,3-thiazole-2-amine], under setting [2], the “log P (*)” value is on record as 1.95*.
As to `CC(C)(C)Cc1cccc(-c2csc(N=C3CCCCN3)n2)c1` [compound 47, 4-[3-(2,2-dimethylpropyl)phenyl]-N-[(2E/Z)-piperidin-2-ylidene]-1,3-thiazole-2-amine], where the note is “LC-MS, acidic range”, the “log P (**)” value was 2.51. Moreover, the “log P (***)” value under setting [1] stood at 4.86.
On to `FC(F)(F)Oc1ccc(-c2csc(N=C3CCCCN3)n2)cc1` [compound 50, N-[(2E/Z)-piperidin-2-ylidene]-4-[4-(trifluoromethoxy)phenyl]-1,3-thiazole-2-amine], for which the “log P (**)” value (LC-MS, acidic range) was 1.78**.
With `Brc1cccc(-c2csc(N=C3CCCCN3)n2)c1` [compound 106, 4-(3-bromophenyl)-N-[(2E/Z)-piperidin-2-ylidene]-1,3-thiazole-2-amine], the “log P (**)” value (LC-MS, acidic range) is reported as 1.53**.
As for `Fc1ccc(F)c(-c2csc(N=C3CCCCN3)n2)c1` [compound 19, 4-(2,5-difluorophenyl)-N-[(2E/Z)-piperidin-2-ylidene]-1,3-thiazole-2-amine], the “log P (**)” value (LC-MS, acidic range) turned out to be 1.58. In addition, under setting [1], the “log P (***)” value is given as 3.16. The “log P (*)” value under setting [2] came out at 1.58.
Take `CC(=O)N1CCCCC1=Nc1nc(-c2cccc(Cl)c2Cl)cs1` [compound 36, 1-[(2E/Z)-2-{[4-(2,3-dichlorophenyl)-1,3-thiazol-2-yl]imino}piperidin-1-yl]ethanone]: the “log P (**)” value (LC-MS, acidic range) was 4.03. Moreover, under setting [1], the “log P (***)” value is reported as 4.02. Besides, under setting [2], the “log P (*)” value amounted to 4.03.
In the case of `Clc1ccc(-c2csc(N=C3CCCCN3)n2)cc1` [compound 2, 4-(4-chlorophenyl)-N-[(2E/Z)-piperidin-2-ylidene]-1,3-thiazole-2-amine], the “log P (**)” value (LC-MS, acidic range) is 1.7**.
As to `FC(F)(F)c1cccc(-c2csc(N=C3CCCCN3)n2)c1Cl` [compound 8, 4-[2-chloro-3-(trifluoromethyl)phenyl]-N-[(2E/Z)-piperidin-2-yl-idene]-1,3-thiazole-2-amine], the “log P (**)” value (LC-MS, acidic range) worked out at 1.94. For the same molecule, the “log P (***)” value under setting [1] came to 3.72.
As to `Cc1cccc(-c2cccc(-c3csc(N=C4CCCCN4)n3)c2)c1` [compound 71, 4-(3′-methylbiphenyl-3-yl)-N-[(2E/Z)-piperidin-2-ylidene]-1,3-thiazole-2-amine], the “log P (***)” value under setting [1] is listed as 4.48. Further, the “log P (*)” value under setting [2] came to 2.12.
